Experiments:
[1] = Inhibition of bovine brain tubulin polymerization by spectrometric analysis; assay type: tissue-based, Bos taurus
HeLa = experiment: Cytotoxicity against human HeLa cells assessed as reduction in cell viability incubated for 48 hrs by MTT assay; assay type: functional, cell-based
A549 [2] = experiment: Cytotoxicity against human A549 cells assessed as reduction in cell viability incubated for 48 hrs by MTT assay; assay type: functional, cell-based; settings: A549, 48 h
BJAB [3] = experiment: Cytotoxicity against human BJAB cells assessed as reduction in cell viability incubated for 24 hrs by CASY cell counter method; assay type: functional, cell-based
Sus scrofa = species: Sus scrofa; experiment: Displacement of fluorescein-colchicine from pig brain tubulin incubated for 1 hr by fluorescence based gel exclusion assay; assay type: tissue-based; settings: concentration not given here
BJAB [4] = experiment: Cytotoxicity against human BJAB cells; assay type: functional, cell-based
HT-1080 [5] = experiment: Cytotoxicity against human HT-1080 cells assessed as reduction in cell viability incubated for 24 hrs by MTT assay; assay type: functional, cell-based; settings: HT-1080, 24 h
Tubulin [6] = experiment: Inhibition of tubulin polymerization (unknown origin) measured for every 1 min interval for 90 mins by fluorescence based assay; assay type: protein-complex assay, Homo sapiens
SGC-7901 [7] = experiment: Cytotoxicity against human SGC-7901 cells assessed as reduction in cell viability incubated for 24 hrs by MTT assay; assay type: functional, cell-based; settings: SGC-7901, 24 h
A549 [8] = experiment: Cytotoxicity against human A549 cells assessed as reduction in cell viability incubated for 24 hrs by MTT assay; assay type: functional, cell-based; settings: A549, 24 h
Tubulin [9] = experiment: Inhibition of tubulin polymerization (unknown origin) incubated for 1 hr by fluorescence based assay; assay type: protein-complex assay, Homo sapiens
[10] = Cytotoxicity against Leukemia cell line (unknown origin) assessed as reduction in cell viability incubated for 72 hrs by MTT assay; assay type: functional
[11] = Cytotoxicity against Cervical carcinoma cell line (unknown origin) assessed as reduction in cell viability incubated for 72 hrs by MTT assay; assay type: functional
[12] = Cytotoxicity against Breast cancer cells (unknown origin) assessed as reduction in cell viability incubated for 72 hrs by MTT assay; assay type: functional, cell-based; settings: Breast cancer cell line
[13] = Cytotoxicity against Prostate tumor cell line (unknown origin) assessed as reduction in cell viability incubated for 72 hrs by MTT assay; assay type: functional
[14] = Cytotoxicity against Ovarian cancer cell line (unknown origin) assessed as reduction in cell viability incubated for 72 hrs by MTT assay; assay type: functional
B16 = experiment: Cytotoxicity against mouse B16 cells assessed as reduction in cell viability incubated for 72 hrs by MTT assay; assay type: functional, cell-based; settings: B16, 72 h
MCF7 = experiment: Cytotoxicity against human MCF7 cells assessed as reduction in cell viability incubated for 24 hrs by MTT assay; assay type: functional, cell-based; settings: MCF7, 24 h
HT-29 = experiment: Cytotoxicity against human HT-29 cells assessed as reduction in cell viability incubated for 24 hrs by MTT assay; assay type: functional, cell-based; settings: HT-29, 24 h
SGC-7901 [15] = experiment: Cytotoxicity against human SGC-7901 cells; assay type: functional, cell-based
HT-1080 [16] = experiment: Cytotoxicity against human HT-1080 cells; assay type: functional, cell-based
A549 [17] = experiment: Cytotoxicity against human A549 cells; assay type: functional, cell-based

With `COc1cc(C(=O)n2nc(-c3ccc(C)cc3)nc2N)cc(OC)c1OC` as the molecule, how does the IC50 [1] read?
Its IC50 is 0.66 µM.

For `COc1ccc(S(=O)(=O)Nc2cccnc2Nc2ccc(O)cc2)cc1` [ABT-751], which IC50 (HeLa) is on record?
The IC50 was 2.18 µM.

What about the IC50 (A549 [2]) of the same molecule?
Its IC50 is 1.62 µM.

Which IC50 (BJAB [3]) does the source give for `CCCCCCCCCCCC(=O)OCc1cn(C2CCc3cc(OC)c(OC)c(OC)c3-c3ccc(OC)c(=O)cc32)nn1` (centres undefined) here?
Its IC50 is 0.01 µM.

And the inhibition (Sus scrofa)?
Its inhibition is > 80%.

Which IC50 (BJAB [4]) does the source give for `CCCCCCCC/C=C\CCCCCCCC(=O)OCc1cn(C2CCc3cc(OC)c(OC)c(OC)c3-c3ccc(OC)c(=O)cc32)nn1` (centres undefined) here?
Its IC50 is 0.006 µM.

For `COc1cccc(-c2nnc3n2N=C(c2ccc(OC)c(N)c2)CS3)c1`, which IC50 (HT-1080 [5]) is on record?
Its IC50 is 0.011 µM.

And the IC50 (Tubulin [6])?
Its IC50 is 1.6 µM.

What about the IC50 (SGC-7901 [7]) of the same molecule?
Its IC50 is 0.011 µM.

What about the IC50 (A549 [8]) of the same molecule?
The IC50 was 0.011 µM.

For `O=C(c1cn(Cc2cccc(Oc3ccccc3)c2)nn1)c1cccnc1Nc1ccc(F)cc1`, which IC50 (Tubulin [9]) is on record?
Its IC50 is 1.84 µM.

Which IC50 [10] does the source give for `COc1cc(-c2nncn2-c2ccc3c(ccn3C)c2)cc(OC)c1OC` here?
Its IC50 is 0.0021 µM.

What about the IC50 [11] of the same molecule?
The IC50 was 0.0021 µM.

And the IC50 [12]?
The IC50 was 0.0021 µM.

What about the IC50 [13] of the same molecule?
The IC50 was 0.0021 µM.

And the IC50 [14]?
The IC50 was 0.0021 µM.

Which IC50 (B16) does the source give for `COc1ccc(/C=C\c2cc(OC)c(OC)c(OC)c2)cc1O` [COMBRETASTATIN A4] here?
Its IC50 is 56 µM.

With `CCCCCCCCCCCCCCCCCC(=O)OCc1cn(C2CCc3cc(OC)c(OC)c(OC)c3-c3ccc(OC)c(=O)cc32)nn1` (centres undefined) as the molecule, how does the IC50 (BJAB [4]) read?
The IC50 was 0.004 µM.

With `COc1cc(Cc2nnc(S)n2/N=C\c2cccc(Cl)c2Cl)cc(OC)c1OC` as the molecule, how does the IC50 (HT-1080 [5]) read?
The IC50 was 12.5 µM.

What about the IC50 (MCF7) of the same molecule?
The IC50 was 3.33 µM.

What about the IC50 (Tubulin [9]) of the same molecule?
The IC50 was 0.17 µM.

And the IC50 (HT-29)?
Its IC50 is 4.25 µM.

And the IC50 (A549 [8])?
The IC50 was 9.71 µM.

What does the source list for `COc1cc(/C(=N/O)c2cnn(-c3ccccc3)n2)cc(OC)c1OC`?
IC50 (SGC-7901 [15]): 0.12 µM; IC50 (HT-1080 [16]): 0.12 µM; IC50 (A549 [17]): 0.12 µM

With `COc1cc(Nc2ncccc2NC(=O)c2cn(Cc3cccc(Oc4ccccc4)c3)nn2)cc(OC)c1` as the molecule, how does the IC50 (HeLa) read?
Its IC50 is 1.33 µM.

What about the IC50 (Tubulin [9]) of the same molecule?
Its IC50 is 2.04 µM.

What about the IC50 (A549 [2]) of the same molecule?
Its IC50 is 1.02 µM.
